This passage reports IC50 results from patent publication US12060349B2, “Glucosylceramide synthase inhibitors” (Genzyme Corporation, priority 2012, dated 2024).

Read-outs that look alike come from different tables or passages of the source.

The test system of one assay is C32 human melanoma cells. The assay can be described thus: cell viability in the C32 cell-based assay (Viability, C32 IC50). Conditions: Homo sapiens, concentration causing 50% cell death, values greater than 10 represent a lack of cell death. A digest of the protocol: (§1)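 Both lines undergo the phenotypic GM3 assay, and viability is recorded from that same cell-based run.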

Assay [1] deals with GM3 expression on the cell surface, B16 mouse melanoma cells. As to the kind of experiment: cell based phenotypic assay, cell surface GM3 by antibody mediated immunofluorescence, B16 (GM3 B16 IC50). The conditions noted are these: Mus musculus, 50% inhibition of GM3 expression on the cell surface. In a few lines: (§2)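 Two melanoma lines, mouse B16 and human C32, were treated and surface GM3 quantified by antibody immunofluorescence for IC50. A parallel viability readout gives the concentration killing 50% of cells, with values over 10 indicating no cell death.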

In the next assay the test system is B16 mouse melanoma cells. As to the kind of experiment: cell viability in the B16 cell-based assay (Viability, B16 IC50). Conditions: Mus musculus. A digest of the protocol: as §1
Assay [2] relates to GM3 expression on the cell surface, C32 human melanoma cells. The assay can be described thus: cell based phenotypic assay, cell surface GM3 by antibody mediated immunofluorescence, C32 (GM3 C32 IC50). The conditions noted are these: Homo sapiens, 50% inhibition of GM3 expression on the cell surface. A digest of the protocol: as §2
Assay [3] addresses T1, glucosylceramide synthase (Homo sapiens, UniProt Q16739).
T1 construct: Microsomes were isolated from A375 human melanoma cells; endogenous in cells; host or cells: A375 human melanoma cells (microsomal fraction, 100,000 g pellet)
T1 sequence (Q16739 1-394): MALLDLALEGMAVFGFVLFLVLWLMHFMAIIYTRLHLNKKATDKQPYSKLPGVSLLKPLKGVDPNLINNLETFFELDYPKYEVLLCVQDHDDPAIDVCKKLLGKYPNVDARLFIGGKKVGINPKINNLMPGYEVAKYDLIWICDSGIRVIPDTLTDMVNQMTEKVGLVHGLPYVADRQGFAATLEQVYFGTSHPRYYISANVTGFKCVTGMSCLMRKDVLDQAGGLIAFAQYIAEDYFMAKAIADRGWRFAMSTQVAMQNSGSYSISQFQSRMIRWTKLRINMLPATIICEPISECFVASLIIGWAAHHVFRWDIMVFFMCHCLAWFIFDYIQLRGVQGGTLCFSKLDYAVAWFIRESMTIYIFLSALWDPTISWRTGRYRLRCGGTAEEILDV
As to the kind of experiment: microsomal assay measuring conversion of ceramide to glucosylceramide by HPLC (GCS IC50). The class given is biochemical. Conditions: concentration causing 50% inhibition of glucosylceramide synthase activity. In a few lines:
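Microsomal preparation assayed for glucosylceramide synthase by direct HPLC measurement of ceramide conversion to glucosylceramide. GCS IC50 is the compound concentration giving 50% inhibition of enzyme activity.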

Setting [4] is: C32, read-out: Viability, C32 IC50, C32 cells.
The mark [5] stands for this setting: read-out: GM3 B16 IC50, B16 mouse melanoma cells.
Where [6] appears, read: B16, read-out: Viability, B16 IC50.
The mark [7] stands for this setting: read-out: GM3 C32 IC50, C32 human melanoma cells.
[8] abbreviates: C32, C32 cells, read-out: Viability, C32 IC50.
The mark [9] stands for this setting: B16 mouse melanoma cells, read-out: GM3 B16 IC50.
Setting [10] is: B16, B16 cells, concentration causing 50% cell death, values greater than 10 represent a lack of cell death, read-out: Viability, B16 IC50.
The mark [11] stands for this setting: C32 human melanoma cells, read-out: GM3 C32 IC50.

On to `CC(C)(NC(=O)OC1CN2CCC1CC2)c1ccc(-c2ccc(CCc3c[nH]nn3)cc2)cc1` (stereo not drawn) [Example 227, Quinuclidin-3-yl (2-(4′-(2-(1H-1,2,3-triazol-4-yl)ethyl)-[1,1′-biphenyl]-4-yl)propan-2-yl)carbamate], for which the IC50 was 1 µM with C32 human melanoma cells (setting [4]); 0.122 µM in assay [1] (setting [5]); not below 10 µM in the assay with B16 mouse melanoma cells (setting [6]); 0.0104 µM in assay [2] (setting [7]); 0.027 µM in assay [3].

Regarding `CC(C)(NC(=O)OC1CCN2CCC1CC2)c1ccc(-c2ccc(CCc3c[nH]nn3)cc2)cc1` (stereo not drawn) [Example 228, 1-Azabicyclo[3.2.2]nonan-4-yl (2-(4′-(2-(1H-1,2,3-triazol-4-yl)ethyl)-[1,1′-biphenyl]-4-yl)propan-2-yl)carbamate], the IC50 came to 3.16 µM in the assay on C32 human melanoma cells (setting [8]); 0.0808 µM in assay [1] (setting [9]); 7.65 µM in the assay with B16 mouse melanoma cells (setting [10]); 0.00608 µM in assay [2] (setting [11]); 0.0182 µM in assay [3].

As for `CC(C)(NC(=O)OC1CN2CCC1CC2)c1ccc(-c2ccc(CN3CCOCC3)cc2)cc1` (stereo not drawn) [Example 229, Quinuclidin-3-yl (2-(4′-(morpholinomethyl)-[1,1′-biphenyl]-4-yl)propan-2-yl)carbamate], the IC50 is not below 10 µM with C32 human melanoma cells (setting [4]); 0.524 µM in assay [1] (setting [5]); not below 10 µM in the assay with B16 mouse melanoma cells (setting [6]); 0.0532 µM in assay [2] (setting [7]); 0.158 µM in assay [3].

Consider `CC(C)(NC(=O)N1CCN2CCC1CC2)c1ccc(-c2ccc(CN3CCOCC3)cc2)cc1` [Example 230, N-(2-(4′-(Morpholinomethyl)-[1,1′-biphenyl]-4-yl)propan-2-yl)-1,4-diazabicyclo[3.2.2]nonane-4-carboxamide], for which the IC50 was not below 10 µM in the assay on C32 human melanoma cells (setting [8]); 1.79 µM in assay [1] (setting [9]); not below 10 µM in the assay on B16 mouse melanoma cells (setting [10]); 0.417 µM in assay [2] (setting [11]); 2.28 µM in assay [3].

Regarding `CC(C)(NC(=O)OC1CN2CCC1CC2)c1ccc(-c2ccc(N3CCOCC3)cc2)cc1` (stereo not drawn) [Example 231, Quinuclidin-3-yl (2-(4′-morpholino-[1,1′-biphenyl]-4-yl)propan-2-yl)carbamate], the half-maximal inhibitory concentration (IC50) in the assay with C32 human melanoma cells (setting [4]) turned out to be 2 µM; in assay [1] (setting [5]), 0.23 µM; in the assay on B16 mouse melanoma cells (setting [6]), 2 µM; in assay [2] (setting [7]), 0.015 µM; in assay [3], 0.071 µM.

`CC(C)(NC(=O)NC1(C)CN2CCC1CC2)c1ccc(-c2ccc(N3CCOCC3)cc2)cc1` (stereo not drawn) [Example 232, 1-(3-Methylquinuclidin-3-yl)-3-(2-(4′-morpholino-[1,1′-biphenyl]-4-yl)propan-2-yl)urea]: the 50% inhibitory concentration (IC50) came to 1 µM in the assay with C32 human melanoma cells (setting [8]); 0.0642 µM in assay [1] (setting [9]); 1 µM in the assay on B16 mouse melanoma cells (setting [10]); 0.00717 µM in assay [2] (setting [11]); 0.0309 µM in assay [3].

Regarding `CC(C)(NC(=O)NC1(C)CCN2CCC1CC2)c1ccc(-c2ccc(N3CCOCC3)cc2)cc1` (stereo not drawn) [Example 233, 1-(4-Methyl-1-azabicyclo[3.2.2]nonan-4-yl)-3-(2-(4′-morpholino-[1,1′-biphenyl]-4-yl)propan-2-yl)urea], the IC50 with C32 human melanoma cells (setting [8]) turned out to be 1 µM; in assay [1] (setting [9]) it was 0.00551 µM; with B16 mouse melanoma cells (setting [10]), 1 µM; in assay [2] (setting [11]), 0.000726 µM; in assay [3] it was 0.00568 µM.

In the case of `CCC1(NC(=O)NC(C)(C)c2ccc(-c3ccc(N4CCOCC4)cc3)cc2)CN2CCC1CC2` (stereo not drawn) [Example 234, 1-(3-Ethylquinuclidin-3-yl)-3-(2-(4′-morpholino-[1,1′-biphenyl]-4-yl)propan-2-yl)urea], the IC50 is 1 µM in the assay with C32 human melanoma cells (setting [8]); 0.0326 µM in assay [1] (setting [9]); 1 µM with B16 mouse melanoma cells (setting [10]); 0.00181 µM in assay [2] (setting [11]); 0.0146 µM in assay [3].

`CC(C)(NC(=O)OC1CN2CCC1CC2)c1ccc(-c2ccc(S(C)(=O)=O)cc2)cc1` (stereo not drawn) [Example 235, Quinuclidin-3-yl (2-(4′-(methylsulfonyl)-[1,1′-biphenyl]-4-yl)propan-2-yl)carbamate]: the half-inhibitory concentration (IC50) in the assay on C32 human melanoma cells (setting [4]) was not below 10 µM; in assay [1] (setting [5]), 0.118 µM; in the assay on B16 mouse melanoma cells (setting [6]) it was not below 10 µM; in assay [2] (setting [7]) it was 0.0199 µM; in assay [3], 0.111 µM.

For `CCC1(NC(=O)NC(C)(C)c2ccc(-c3ccc(S(C)(=O)=O)cc3)cc2)CN2CCC1CC2` (stereo not drawn) [Example 236, 1-(3-Ethylquinuclidin-3-yl)-3-(2-(4′-(methylsulfonyl)-[1,1′-biphenyl]-4-yl)propan-2-yl)urea], the half-inhibitory concentration (IC50) in the assay with C32 human melanoma cells (setting [8]) was not below 10 µM; in assay [1] (setting [9]), 0.0744 µM; in the assay on B16 mouse melanoma cells (setting [10]) it was not below 10 µM; in assay [2] (setting [11]), 0.00946 µM; in assay [3] it was 0.0538 µM.

Regarding `CCCC1(NC(=O)NC(C)(C)c2ccc(-c3ccc(S(C)(=O)=O)cc3)cc2)CN2CCC1CC2` (stereo not drawn) [Example 237, 1-(2-(4′-(Methylsulfonyl)-[1,1′-biphenyl]-4-yl)propan-2-yl)-3-(3-propylquinuclidin-3-yl)urea], the IC50 with C32 human melanoma cells (setting [8]) is not below 10 µM; in assay [1] (setting [9]), 0.0329 µM; with B16 mouse melanoma cells (setting [10]), not below 10 µM; in assay [2] (setting [11]), 0.00671 µM; in assay [3], 0.0354 µM.

Turning to `CC(C)(NC(=O)OC1CN2CCC1CC2)c1ccc(-c2ccc(S(=O)(=O)CC3CC3)cc2)cc1` (stereo not drawn) [Example 238, Quinuclidin-3-yl (2-(4′-((cyclopropylmethyl)sulfonyl)-[1,1′-biphenyl]-4-yl)propan-2-yl)carbamate], the IC50 in the assay with C32 human melanoma cells (setting [4]) is 1 µM; in assay [1] (setting [5]), 0.0501 µM; with B16 mouse melanoma cells (setting [6]) it was not below 10 µM; in assay [2] (setting [7]), 0.00445 µM; in assay [3], 0.0154 µM.

For `CCC1(NC(=O)NC(C)(C)c2ccc(-c3ccc(S(=O)(=O)CC4CC4)cc3)cc2)CN2CCC1CC2` (stereo not drawn) [Example 239, 1-(2-(4′-((Cyclopropylmethyl)sulfonyl)-[1,1′-biphenyl]-4-yl)propan-2-yl)-3-(3-ethylquinuclidin-3-yl)urea], the 50% inhibitory concentration (IC50) in the assay with C32 human melanoma cells (setting [8]) was 1 µM; in assay [1] (setting [9]), 0.0285 µM; with B16 mouse melanoma cells (setting [10]) it was not below 10 µM; in assay [2] (setting [11]) it was 0.00321 µM; in assay [3] it was 0.00987 µM.

For the molecule `CC(C)(NC(=O)NC1(C)CN2CCC1CC2)c1ccc(-c2ccc(S(=O)(=O)CC3CC3)cc2)cc1` (stereo not drawn) [Example 240, 1-(2-(4′-((Cyclopropylmethyl)sulfonyl)-[1,1′-biphenyl]-4-yl)propan-2-yl)-3-(3-methylquinuclidin-3-yl)urea], the 50% inhibitory concentration (IC50) is 1 µM with C32 human melanoma cells (setting [8]); 0.0865 µM in assay [1] (setting [9]); not below 10 µM with B16 mouse melanoma cells (setting [10]); 0.00597 µM in assay [2] (setting [11]); 0.0133 µM in assay [3].

Turning to `CC(C)(NC(=O)OC1CCN2CCC1CC2)c1ccc(-c2ccc(S(=O)(=O)CC3CC3)cc2)cc1` (stereo not drawn) [Example 241, 1-Azabicyclo[3.2.2]nonan-4-yl (2-(4′-((cyclopropylmethyl)sulfonyl)-[1,1′-biphenyl]-4-yl)propan-2-yl)carbamate], the 50% inhibitory concentration (IC50) was 3.16 µM with C32 human melanoma cells (setting [8]); 0.0122 µM in assay [1] (setting [9]); not below 10 µM in the assay with B16 mouse melanoma cells (setting [10]); 0.00144 µM in assay [2] (setting [11]); 0.00423 µM in assay [3].

Consider `COCCCS(=O)(=O)c1ccc(-c2ccc(C(C)(C)NC(=O)OC3CN4CCC3CC4)cc2)cc1` (stereo not drawn) [Example 242, Quinuclidin-3-yl (2-(4′-((3-methoxypropyl)sulfonyl)-[1,1′-biphenyl]-4-yl)propan-2-yl)carbamate], for which the IC50 is 3.16 µM in the assay with C32 human melanoma cells (setting [4]); 0.0825 µM in assay [1] (setting [5]); not below 10 µM with B16 mouse melanoma cells (setting [6]); 0.0102 µM in assay [2] (setting [7]); 0.0325 µM in assay [3].

With `CCC1(NC(=O)NC(C)(C)c2ccc(-c3ccc(S(=O)(=O)CCCOC)cc3)cc2)CN2CCC1CC2` (stereo not drawn) [Example 243, 1-(3-Ethylquinuclidin-3-yl)-3-(2-(4′-((3-methoxypropyl)sulfonyl)-[1,1′-biphenyl]-4-yl)propan-2-yl)urea], the IC50 is 3.16 µM in the assay on C32 human melanoma cells (setting [8]); 0.0573 µM in assay [1] (setting [9]); not below 10 µM with B16 mouse melanoma cells (setting [10]); 0.00749 µM in assay [2] (setting [11]); 0.0328 µM in assay [3].

`CCCC1(NC(=O)NC(C)(C)c2ccc(-c3ccc(S(=O)(=O)CCCOC)cc3)cc2)CN2CCC1CC2` (stereo not drawn) [Example 244, 1-(2-(4′-((3-Methoxypropyl)sulfonyl)-[1,1′-biphenyl]-4-yl)propan-2-yl)-3-(3-propylquinuclidin-3-yl)urea]: the IC50 with C32 human melanoma cells (setting [8]) was 3.16 µM; in assay [1] (setting [9]) it was 0.0341 µM; in the assay on B16 mouse melanoma cells (setting [10]), not below 10 µM; in assay [2] (setting [11]) it was 0.00699 µM; in assay [3] it was 0.0371 µM.
